Source: PubChem BioAssay (NCI)
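Five compound concentrations were applied to cells in 96-well plates for 48 hours; endpoints were derived by simple linear interpolation of the resulting dose-response curve. GI50 marks 50% less growth. TGI denotes the concentration required for complete inhibition of growth.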

Assays:
Experiment in all cases: inhibition of tumour cell growth, NCI panel, 48 h
BT-549 breast = tested on: BT-549 breast
DU-145 prostate = tested on: DU-145 prostate
HCC-2998 colon = tested on: HCC-2998 colon
HOP-62 NSCLC = tested on: HOP-62 NSCLC
KM12 colon = tested on: KM12 colon
NCI-H226 lung = tested on: NCI-H226 lung
OVCAR-3 ovarian = tested on: OVCAR-3 ovarian
SK-OV-3 ovarian = tested on: SK-OV-3 ovarian
U251 CNS = tested on: U251 CNS
UO-31 renal = tested on: UO-31 renal

Compound	GI50 (BT-549 breast) [µM]	TGI (BT-549 breast) [µM]	GI50 (DU-145 prostate) [µM]	TGI (DU-145 prostate) [µM]	GI50 (HCC-2998 colon) [µM]	TGI (HCC-2998 colon) [µM]	GI50 (HOP-62 NSCLC) [µM]	TGI (HOP-62 NSCLC) [µM]	GI50 (KM12 colon) [µM]	TGI (KM12 colon) [µM]	GI50 (NCI-H226 lung) [µM]	TGI (NCI-H226 lung) [µM]	GI50 (OVCAR-3 ovarian) [µM]	TGI (OVCAR-3 ovarian) [µM]	GI50 (SK-OV-3 ovarian) [µM]	TGI (SK-OV-3 ovarian) [µM]	GI50 (U251 CNS) [µM]	TGI (U251 CNS) [µM]	GI50 (UO-31 renal) [µM]	TGI (UO-31 renal) [µM]
CNC(=O)c1cc(Oc2ccc3nc(NC(=O)Nc4ccc(Cl)c(Cl)c4)sc3c2)ccn1	4.88	> 100	2.45	6.29	5.04	> 100	2.24	4	3	> 100	2.28	4.58	2.31	5.38	2.24	4.09	1.83	3.46	2.08	3.96
CCN(CC)c1ccc(/C=N/NC(=O)c2ccc(Nc3ccnc(C(F)(F)F)c3)cc2)c(O)c1	0.38	> 34.9	0.362	> 46.9	0.25	1.4	0.187	1.07	0.316	4.1	0.288	2.34	0.109	> 70.1	0.324	8.36	0.145	> 37.6	0.117	1.91
CCCCCC(=O)N1c2ccccc2NC2=C(C(=O)CC(c3ccc(OC)c(OC)c3)C2)C1c1ccc(C(F)(F)F)cc1 (stereo not given)	> 100	> 100	> 100	> 100	> 100	> 100	> 100	> 100	> 100	> 100	> 100	> 100	> 100	> 100	> 100	> 100	> 100	> 100	42.5	> 100
COc1ccc(C2CC(=O)Nc3c2c(C)nn3-c2nc3ccccc3[nH]2)cc1 (stereo not given)	3.33	20	3.64	16.8	5.67	> 58.5	2.56	6.55	2.72	7.09	2.58	7.9	2.54	5.72	3.23	7.83	2.56	7.04	3.19	15.8
O=C(O)CC(Cc1ccc2c(c1)OCO2)C(=O)O (stereo not given)		> 100		> 100		> 100		> 100		> 100		> 100		> 100		> 100		> 100		> 100
Cc1ccc(NC(=O)c2ccnc(C(F)(F)F)c2)cc1-c1cc(OCCO)nc(N2CCOCC2)c1	5.87	22.9	4.09	61.2	0.464	10	1.28	34.5	2.28	22.1	2.81	34.6	2.62	12.5	6.39	> 100	4.7	28.8	0.495	13.1
O=C(O)C(/C=C/c1ccco1)=N\Nc1nc(-c2ccc(Cl)cc2)cs1	16.9	> 50	15.8	> 50	14.2	> 50	16.5	> 50	11.2	> 50	9.41	25.4	9.51	> 50	16.1	> 50	4.59	> 50	12.9	> 50
S=C(Nc1ccccc1)c1ccccn1	73.9	> 100	53	> 100	> 100	> 100	81.9	> 100	> 100	> 100	> 100	> 100	31.6	> 100	> 100	> 100	38	> 100	25.5	> 100
CC(=O)OCC(=O)[C@@]1(O)[C@H](C)C[C@H]2[C@@H]3C=C(C)C4=Cc5c(cnn5-c5ccc(F)cc5)C[C@]4(C)[C@H]3[C@@H](O)C[C@@]21C	1.77	4.78	2.03	5.17	1.88	3.77	1.28	3.07	1.44	2.94	2.23	9.08	1.78	3.84	1.29	4.57	1.25	3.27	4.31	15.6
COC(=O)c1c2c(c(C)[n+]([O-])c1C)C(=O)C=C(NCc1ccc(Cl)cc1)C2=O	1.22	2.58	1.09	2.32	0.354	1.55	1.15	3.46	0.127	2	1.43	3.52	0.208	0.625	1.85	4.64	0.598	1.88	1.16	2.66
